Values of other authors in patent US11045483B2, “Pain-killing composition comprising a salicylic acid derivative” (AB7 INNOVATION S.A.S.U, priority 2015, dated 2021).

Conditions: topical application of formulations; Sheree E. Cross et al., 1998

COC(=O)c1ccccc1O [methyl salicylate]
time that must elapse before detection in the circulatory system: around 60 minutes
